These results are taken from patent publication US20100286139A1, “AMINO PYRAZOLE COMPOUND” (ELI LILLY AND COMPANY, priority 2008, published 2010).

The assay addresses T1, JAK2V617F (Homo sapiens, UniProt O60674, V617F).
T1 construct: expressed in transfected cells; host or cells: Ba/F3 (murine pro-B) cells
The experiment in a line: Ba/F3 JAK2V617F cell-based assay (Cellomics ArrayScan HCS). Also noted: species or system murine. The conditions noted are these: Ba/F3 cells expressing JAK2V617F, 60 min compound incubation; read-out: relative IC50, inhibition of pSTAT5. The source says:
JAK2 target inhibition has been evaluated in Ba/F3 expressing JAK2 V617F by Western blot as reported in Wernig et al. (Wernig G, et al. Efficacy of TG101348, a selective JAK2 inhibitor, in treatment of a murine model of JAK2V617F-induced polycythemia vera, Cancer Cell, April; 13(4):311-20). A medium throughput Cellomics assay was established to evaluate the JAK2 target inhibition in Ba/F3 cells expressing JAK2V617F. This assay enables the discovery of an effective therapeutic agent to treat disorders associated with JAK2V617F mutation.
Ba/F3 (murine pro-B) cells expressing JAK2V617F maintained in RPMI 1640 with 10% FBS, 0.07% sodium bicarbonate, 1 mM sodium pyruvate, 1× antibiotic/antimycotic (Invitrogen, Carlsbad, Calif.) and 0.45% glucose (Sigma, St Louis, Mo.). Cells are kept at 37° C. with 5% CO2. The test compound is prepared in 100% DMSO at 10 mM concentration. […]
After cell treatment, 500 μL of 1% formaldehyde solution (made freshly with phosphate-buffered saline (PBS) and kept warm at 37° C.) is added to each well. […] An aliquot of 200 μL of 1 to 10 dilution of Mouse anti-pSTAT5 (pY694) Alexa Fluor 647® in fluorescence activated cell sorting (FACS) buffer is added to the cells. […] Mean fluorescent intensity data are collected and analyzed using Cellomics Arrayscan® VTi. […] The relative IC50 is calculated using a 4 parameter logistic curve fitting analysis with ActivityBase 4.0. […]

T1 sequence (O60674 whole entry V617F): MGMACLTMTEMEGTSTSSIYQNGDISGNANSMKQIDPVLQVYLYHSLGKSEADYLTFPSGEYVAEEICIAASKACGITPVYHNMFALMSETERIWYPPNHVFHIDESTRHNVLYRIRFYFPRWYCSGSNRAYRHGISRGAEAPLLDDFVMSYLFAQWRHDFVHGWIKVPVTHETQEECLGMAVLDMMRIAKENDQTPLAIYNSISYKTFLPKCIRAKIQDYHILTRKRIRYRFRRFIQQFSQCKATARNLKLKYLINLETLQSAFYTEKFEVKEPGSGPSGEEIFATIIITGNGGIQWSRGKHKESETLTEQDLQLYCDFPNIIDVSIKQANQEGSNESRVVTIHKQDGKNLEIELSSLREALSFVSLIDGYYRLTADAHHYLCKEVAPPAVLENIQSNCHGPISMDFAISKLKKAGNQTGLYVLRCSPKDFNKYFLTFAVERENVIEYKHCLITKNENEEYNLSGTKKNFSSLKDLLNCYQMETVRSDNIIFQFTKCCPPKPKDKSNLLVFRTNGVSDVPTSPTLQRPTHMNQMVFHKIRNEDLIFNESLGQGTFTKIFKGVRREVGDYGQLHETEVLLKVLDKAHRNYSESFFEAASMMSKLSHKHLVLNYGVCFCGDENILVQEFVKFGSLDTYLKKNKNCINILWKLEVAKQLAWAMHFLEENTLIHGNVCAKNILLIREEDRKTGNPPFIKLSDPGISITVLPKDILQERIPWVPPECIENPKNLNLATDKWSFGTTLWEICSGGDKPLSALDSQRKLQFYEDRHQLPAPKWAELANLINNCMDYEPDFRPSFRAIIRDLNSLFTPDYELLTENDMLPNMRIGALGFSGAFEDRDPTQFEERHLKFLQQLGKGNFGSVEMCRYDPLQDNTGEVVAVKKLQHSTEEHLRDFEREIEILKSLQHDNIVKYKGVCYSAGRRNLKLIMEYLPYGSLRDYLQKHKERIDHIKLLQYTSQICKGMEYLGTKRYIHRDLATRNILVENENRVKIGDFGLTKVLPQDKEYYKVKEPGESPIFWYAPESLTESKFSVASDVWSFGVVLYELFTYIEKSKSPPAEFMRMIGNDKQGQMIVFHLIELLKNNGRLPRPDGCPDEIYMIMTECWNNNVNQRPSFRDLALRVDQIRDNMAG

As for `Cc1cc(Nc2cc(CN3CCOCC3)c3nc(C)c(Cc4ccc(Cl)cc4F)n3n2)n[nH]1` [3-(4-Chloro-2-fluorobenzyl)-2-methyl-N-(5-methyl-1H-pyrazol-3-yl)-8-(morpholinomethyl)imidazo[1,2-b]pyridazin-6-amine], the concentration for half-maximal inhibition (IC50) is 30 nM.

By IC50 is commonly meant the concentration that gives 50% inhibition.
